Experimental data as given in US7569593B2, “Compounds and compositions as protein kinase inhibitors” (IRM LLC, priority 2003, dated 2009).

How the values were obtained:
Assay type in all cases: biochemical
[1] = target: T1, Lck (Homo sapiens, UniProt P06239); experiment: Upstate KinaseProfiler radio-enzymatic filter binding assay; details: at a concentration of 10 μM; 100% means complete inhibition; read-out: percentage inhibition of Lck
T1 construct: purchased Upstate (KinaseProfiler panel)
Method: (§1) Compounds of the invention are assessed for their ability to inhibit individual members of a panel of kinases (a partial, non-limiting list of kinases includes: Abl, BCR-Abl, EGF-R, c-erbB2 kinase (HER-2), PDGF-R, lck, SAPK2α, p38, TGFβ, KDR, c-Kit, b-RAF, c-RAF, FLTI and FLT4). The compounds are tested in duplicates at a final concentration of 10 μM following this generic protocol. Note that the kinase buffer composition and the substrates vary for the different kinases included in the “Upstate KinaseProfiler™” panel. Kinase buffer (2.5 μL, 10x—containing MnCl2 when required), active kinase (0.001-0.01 Units; 2.5 μL), specific or Poly(Glu4-Tyr) peptide (5-500 μM or .01mg/ml) in kinase buffer and kinase buffer ([…]; 5 μL) are mixed in an eppendorf on ice. A Mg/ATP mix (10 μL; 67.5 (or 33.75) mM MgCl2, 450 (or 225) μM ATP and 1 μCi/μl [γ-^32P]-ATP (3000 Ci/mmol)) is added and the reaction is incubated at about 30° C. for about 10 minutes. The reaction mixture is spotted (20 μL) onto a 2 cm×2 cm P81 (phosphocellulose, for positively charged peptide substrates) or Whatman No. 1 (for Poly (Glu4-Tyr) peptide substrate) paper square. The assay squares are washed 4 times, for 5 minutes each, with 0.75% phosphoric acid and washed once with acetone for 5 minutes. The assay squares are transferred to a scintillation vial, 5 ml scintillation cocktail are added and ^32P incorporation (cpm) to the peptide substrate is quantified with a Beckman scintillation counter. Percentage inhibition is calculated for each reaction.

[2] = target: T2, Abl (Homo sapiens, UniProt P00519); experiment: as above; details: at a concentration of 10 μM; 100% means complete inhibition; read-out: percentage inhibition of Abl
T2 construct: purchased Upstate (KinaseProfiler panel)
T2 sequence (P00519 whole entry, species assumed): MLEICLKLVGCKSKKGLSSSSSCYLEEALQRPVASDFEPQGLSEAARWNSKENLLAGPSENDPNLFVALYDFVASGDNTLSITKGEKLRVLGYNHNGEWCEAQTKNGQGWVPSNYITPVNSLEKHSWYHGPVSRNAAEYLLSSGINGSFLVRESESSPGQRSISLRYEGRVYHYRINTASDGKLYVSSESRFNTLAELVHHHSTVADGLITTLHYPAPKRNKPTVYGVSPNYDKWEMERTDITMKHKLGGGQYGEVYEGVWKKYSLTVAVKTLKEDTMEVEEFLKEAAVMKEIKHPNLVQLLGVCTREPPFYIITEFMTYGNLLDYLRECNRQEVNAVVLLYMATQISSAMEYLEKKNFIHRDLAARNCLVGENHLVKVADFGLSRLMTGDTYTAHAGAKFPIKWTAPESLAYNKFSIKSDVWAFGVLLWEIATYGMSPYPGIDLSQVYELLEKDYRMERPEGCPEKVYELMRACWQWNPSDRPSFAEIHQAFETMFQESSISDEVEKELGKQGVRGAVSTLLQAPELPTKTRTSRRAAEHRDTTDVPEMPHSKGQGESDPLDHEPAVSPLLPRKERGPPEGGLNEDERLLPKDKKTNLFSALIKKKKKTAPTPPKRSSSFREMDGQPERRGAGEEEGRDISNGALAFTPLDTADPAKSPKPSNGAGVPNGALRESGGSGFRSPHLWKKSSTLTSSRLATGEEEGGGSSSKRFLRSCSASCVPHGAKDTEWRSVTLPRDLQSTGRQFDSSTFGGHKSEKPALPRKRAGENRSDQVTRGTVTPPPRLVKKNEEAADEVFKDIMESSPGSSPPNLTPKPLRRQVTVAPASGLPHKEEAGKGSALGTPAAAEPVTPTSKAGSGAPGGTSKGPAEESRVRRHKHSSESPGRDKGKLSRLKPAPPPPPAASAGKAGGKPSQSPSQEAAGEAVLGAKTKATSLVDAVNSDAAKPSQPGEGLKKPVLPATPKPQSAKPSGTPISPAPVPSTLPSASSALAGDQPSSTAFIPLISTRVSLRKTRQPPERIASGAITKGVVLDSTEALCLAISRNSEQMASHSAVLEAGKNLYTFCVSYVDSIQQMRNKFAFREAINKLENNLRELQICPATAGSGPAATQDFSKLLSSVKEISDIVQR
Method: as §1

[3] = target: T3, c-RAF (Homo sapiens, UniProt P04049); experiment: as above; details: at a concentration of 10 μM; 100% means complete inhibition; read-out: percentage inhibition of c-RAF
T3 construct: purchased Upstate (KinaseProfiler panel)
T3 sequence (P04049 whole entry): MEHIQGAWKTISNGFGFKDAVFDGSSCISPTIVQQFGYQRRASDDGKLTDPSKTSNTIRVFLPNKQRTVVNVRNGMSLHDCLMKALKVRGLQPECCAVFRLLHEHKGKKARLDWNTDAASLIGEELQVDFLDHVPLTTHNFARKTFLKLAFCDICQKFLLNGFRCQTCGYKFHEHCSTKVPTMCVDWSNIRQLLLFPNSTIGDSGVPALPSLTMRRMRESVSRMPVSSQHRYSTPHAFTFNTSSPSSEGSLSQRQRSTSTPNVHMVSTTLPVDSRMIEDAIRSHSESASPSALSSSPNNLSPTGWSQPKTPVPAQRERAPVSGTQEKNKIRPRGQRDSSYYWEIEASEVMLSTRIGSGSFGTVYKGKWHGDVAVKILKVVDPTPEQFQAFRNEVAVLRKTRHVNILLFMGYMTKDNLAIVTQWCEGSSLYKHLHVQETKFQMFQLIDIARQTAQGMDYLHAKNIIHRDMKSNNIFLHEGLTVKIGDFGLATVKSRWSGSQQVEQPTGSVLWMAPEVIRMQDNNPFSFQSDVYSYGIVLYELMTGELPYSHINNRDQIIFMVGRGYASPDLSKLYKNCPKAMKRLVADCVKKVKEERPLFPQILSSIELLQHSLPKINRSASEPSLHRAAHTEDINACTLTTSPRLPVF
Method: as §1

[4] = target: T4, SAPK2α (Homo sapiens, UniProt Q16539); experiment: as above; details: at a concentration of 10 μM; 100% means complete inhibition; read-out: percentage inhibition of SAPK2α
T4 construct: purchased Upstate (KinaseProfiler panel)
T4 sequence (Q16539 whole entry): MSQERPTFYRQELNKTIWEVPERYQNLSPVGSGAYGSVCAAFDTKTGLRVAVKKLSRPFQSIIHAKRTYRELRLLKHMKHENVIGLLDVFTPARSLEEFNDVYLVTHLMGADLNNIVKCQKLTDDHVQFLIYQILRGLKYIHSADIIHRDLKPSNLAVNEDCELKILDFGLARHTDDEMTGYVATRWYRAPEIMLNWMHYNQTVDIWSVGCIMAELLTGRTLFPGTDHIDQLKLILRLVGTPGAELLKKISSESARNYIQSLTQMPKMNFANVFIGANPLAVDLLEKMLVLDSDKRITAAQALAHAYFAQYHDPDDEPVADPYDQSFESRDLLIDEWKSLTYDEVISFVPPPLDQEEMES
Method: as §1

[5] = target: b-Raf (Homo sapiens, UniProt P15056); experiment: b-Raf kinase inhibition assay (IκBα substrate, 384-well plate); details: read-out: IC50 against b-Raf
Chain of b-Raf (P15056 whole entry): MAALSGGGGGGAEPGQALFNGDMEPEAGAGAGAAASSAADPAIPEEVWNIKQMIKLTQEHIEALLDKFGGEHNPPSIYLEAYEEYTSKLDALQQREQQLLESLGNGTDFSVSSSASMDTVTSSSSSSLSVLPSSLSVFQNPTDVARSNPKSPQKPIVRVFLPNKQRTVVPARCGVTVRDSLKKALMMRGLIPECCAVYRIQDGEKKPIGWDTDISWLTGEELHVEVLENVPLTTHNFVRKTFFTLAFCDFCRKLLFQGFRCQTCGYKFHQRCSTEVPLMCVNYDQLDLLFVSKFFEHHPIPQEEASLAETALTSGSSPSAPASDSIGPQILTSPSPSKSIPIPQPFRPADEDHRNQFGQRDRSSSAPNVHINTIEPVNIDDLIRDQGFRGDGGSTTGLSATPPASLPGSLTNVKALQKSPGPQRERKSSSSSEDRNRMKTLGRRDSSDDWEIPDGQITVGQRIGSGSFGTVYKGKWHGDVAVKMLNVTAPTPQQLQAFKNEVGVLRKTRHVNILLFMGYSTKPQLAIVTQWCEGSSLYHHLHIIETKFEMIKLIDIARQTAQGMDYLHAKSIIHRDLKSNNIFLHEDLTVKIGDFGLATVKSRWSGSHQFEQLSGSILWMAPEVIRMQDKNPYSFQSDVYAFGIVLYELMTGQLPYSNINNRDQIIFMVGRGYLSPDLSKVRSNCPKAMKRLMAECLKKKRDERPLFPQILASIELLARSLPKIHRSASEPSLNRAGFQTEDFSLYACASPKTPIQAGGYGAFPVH
Method: Compounds of the invention are tested for their ability to inhibit the activity of b-Raf. The assay is carried out in 384-well MaxiSorp plates (NUNC) with black walls and clear bottom. The substrate, IκBα is diluted in DPBS (1:750) and 15 μl is added to each well. The plates are incubated at 4° C. overnight and washed 3 times with TBST (25 mM Tris, pH 8.0, 150 mM NaCl and 0.05% Tween-20) using the EMBLA plate washer. Plates are blocked by Superblock (15 μl/well) for 3 hours at room temperature, washed 3 times with TBST and pat-dried. Assay buffer containing 20 μM ATP (10 μl) is added to each well followed by 100 nl or 500 nl of compound. B-Raf is diluted in the assay buffer (1 μl into 25 μl) and 10 μl of diluted b-Raf is added to each well (0.4 μg/well). The plates are incubated at room temperature for 2.5 hours. The kinase reaction is stopped by washing the plates 6 times with TBST. Phosph-IκBα (Ser32/36) antibody is diluted in Superblock (1:10,000) and 15 μl is added to each well. The plates are incubated at 4° C. overnight and washed 6 times with TBST. AP-conjugated goat-anti-mouse IgG is diluted in Superblock (1:1,500) and 15 μl is added to each well. Plates are incubated at room temperature for 1 hour and washed 6 times with TBST. […] Plates are read on Acquest or Analyst GT using a Fluorescence Intensity Nanxin BBT anion (505 dichroic mirror).

T1 sequence (P06239 whole entry, species assumed): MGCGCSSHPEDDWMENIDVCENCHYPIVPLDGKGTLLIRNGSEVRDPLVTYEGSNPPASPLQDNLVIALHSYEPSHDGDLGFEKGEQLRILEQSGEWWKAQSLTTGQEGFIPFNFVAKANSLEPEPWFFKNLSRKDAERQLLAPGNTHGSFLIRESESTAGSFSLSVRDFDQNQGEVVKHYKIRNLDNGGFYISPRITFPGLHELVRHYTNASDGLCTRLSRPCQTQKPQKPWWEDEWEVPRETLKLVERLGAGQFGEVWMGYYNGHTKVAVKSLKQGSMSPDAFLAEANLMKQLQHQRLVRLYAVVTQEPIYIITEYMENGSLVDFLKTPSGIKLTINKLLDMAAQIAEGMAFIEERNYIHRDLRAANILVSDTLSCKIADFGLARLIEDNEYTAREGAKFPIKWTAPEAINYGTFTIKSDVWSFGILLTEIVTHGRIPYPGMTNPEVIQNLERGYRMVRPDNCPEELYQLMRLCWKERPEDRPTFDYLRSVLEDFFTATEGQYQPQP

SMILES | inhibition at 10 µM [1] | inhibition at 10 µM [2] | inhibition at 10 µM [3] | inhibition at 10 µM [4] | IC50 [5]
Oc1ccc2cc(-c3nc(-c4ccccc4)[nH]c3-c3ccncc3)ccc2c1 [Compound 11, 6-(2-phenyl-5-pyridin-4-yl-1H-imidazol-4-yl)-naphthalen-2-ol] | 61% | 98% | 98% | 74% | 300 nM
CN(C)c1ccc(NC(=O)Oc2ccc3cc(-c4nc(-c5ccccc5)[nH]c4-c4ccncc4)ccc3c2)cc1 [Compound 15, (4-dimethylamino-phenyl)-carbamic acid 6-(2-phenyl-5-pyridin-4-yl-1H-imidazol-4-yl)-naphthalen-2-yl ester] | – | – | – | – | 879 nM
